# From the SangsterLogP compilation
# Test: method code SF-AS, from DOI: 10.1248/cpb.24.61
# Settings: pH 7.4
row,SMILES,logD
1,Cc1c(N(C)C(C)C(=O)N(C)C)c(=O)n(-c2ccccc2)n1C (configuration not stated),0.69
2,Cc1c(NC(=O)CN(C)C)c(=O)n(-c2ccccc2)n1C,-0.37
3,Cc1c(NC(C)C(=O)N(C)C)c(=O)n(-c2ccccc2)n1C (configuration not stated),0.35
4,Cc1c(NC(N)=O)c(=O)n(-c2ccccc2)n1C,-0.92
5,Cc1c(C(=O)CN(C)C)c(=O)n(-c2ccccc2)n1C,-0.95
6,Cc1c(C(=O)C(C)N(C)C)c(=O)n(-c2ccccc2)n1C (configuration not stated),-0.78
7,CCC(C(=O)c1c(C)n(C)n(-c2ccccc2)c1=O)N(C)C (configuration not stated),-0.24
